Test results reported in patent US11572337B2, “Antibacterial agents: arylalkylcarboxamido phloroglucinols” (Rutgers, The State University of New Jersey, priority 2018, dated 2023).
In brackets after ≈: the same amount, converted by molar mass.

Assays:
[1] = test system: methicillin-resistant Staphylococcus aureus (MRSA) strain BAA-1707 (USA-400, MW2); assay: Antibacterial efficacy in mouse model of Staphylococcus aureus systemic infection (peritonitis model); conditions: female Swiss Webster mice, intravenous injection 0 h post-infection, dose resulting in 50% survival at 72 h (probit), read-out: in vivo antibacterial activity mouse MRSA peritonitis ED50
Method: Female Swiss Webster mice ([…]) were experimentally infected by intraperitoneal administration of 1×10^7 colony forming units of methicillin-resistant Staphylococcus aureus (MRSA) strain BAA-1707 (USA-400, MW2) in 5% hog gastric mucin. Test compounds in vehicle (5% dimethylacetamide and 4% cremophor EL in 10 mM sodium phosphate, pH 8), positive control (linezolid in vehicle), and negative control (vehicle only), were administered by intravenous injection into a tail vein (200 μl) 0 h post-infection. Identities of test compounds and controls were blinded from personnel performing injections and monitoring survival. The protective dose 50 (PD50) was defined as the test-compound dose resulting in 50% survival at 72 h (calculated using the probit method).

[2] = test system: Staphylococcus aureus ATCC 12600; assay: Inhibition of growth of Staphylococcus aureus (spiral gradient endpoint MIC assay); format: cell-based; conditions: ATCC12600, Mueller-Hinton II cation-adjusted agar, 16 h at 37° C., read-out: in vitro antibacterial activity S. aureus ATCC12600 MIC
Description: Minimum inhibitory concentrations (MICs for Staphylococcus aureus ATCC 12600 were quantified using spiral gradient endpoint assays, essentially as described [Wallace, A. and Corkill, J. (1989) Application of the spiral plating method to study antimicrobial action. J. Microbiol. Meths. 10, 303-310; Paton, J., Holt, A., and Bywater, M. (1990) Measurement of MICs of antibacterial agents by spiral gradient endpoint compared with conventional dilution methods. Int. I Exp. Clin. Chemother. 3, 31-38; Schalkowsky S. (1994) Measures of susceptibility from a spiral gradient of drug concentrations. Adv. Exp. Med. Biol. 349, 107-120]. Assays employed exponential-gradient plates containing 150 mm×4 mm Mueller-Hinton II cation-adjusted agar and 0.4-100 μg/ml of test salt. Plates were prepared using an Autoplate 4000 spiral plater (Spiral Biotech, Inc.). Saturated overnight cultures were swabbed radially onto plates, and plates were incubated for 16 h at 37° C. For each culture, the streak length was measured using a clear plastic template (Spiral Biotech, Inc.), the test-salt concentration at the streak endpoint was calculated using the program SGE (Spiral Biotech, Inc.), and the MIC was defined as the calculated test-salt concentration at the streak endpoint.

[3] = molecular target: S. aureus RNA polymerase core enzyme + S. aureus σA (Staphylococcus aureus (strain NCTC 8325 / PS 47), UniProt P47768+Q2G0N5); assay: Fluorescence-detected assay of inhibition of Staphylococcus aureus RNA polymerase; format: biochemical; conditions: T4 N25 promoter DNA, RiboGreen fluorescence, read-out: RNAP-inhibitory activity S. aureus RNAP IC50
Method: (§1) Fluorescence-detected RNA polymerase assays with E. coli RNA polymerase were performed by a modification of the procedure of Kuhlman et al., 2004 [Kuhlman, P., Duff, H. & Galant, A. (2004) A fluorescence-based assay for multisubunit DNA-dependent RNA polymerases. Anal. Biochem. 324, 183-190]. Reaction mixtures contained […]: […] test salt, 75 nM E. coli RNA polymerase σ^70 holoenzyme, 20 nM 384 bp DNA fragment containing the bacteriophage T4 N25 promoter, 100 μM ATP, 100 μM GTP, 100 μM UTP, 100 μM CTP, 50 mM Tris-HCl, pH 8.0, 100 mM KCl, 10 mM MgCl2, 1 mM DTT, 10 μg/ml bovine serum albumin, and 5.5% glycerol. Reaction components other than DNA and NTPs were pre-incubated for 10 min at 37° C. Reactions were carried out by addition of DNA and incubation for 5 min at 37° C., followed by addition of NTPs and incubation for 60 min at 37° C. DNA was removed by addition of 1 μl 5 mM CaCl2 and 2 U DNaseI (Ambion, Inc.), followed by incubation for 90 min at 37° C. RNA was quantified by addition of 100 μI RiboGreen RNA Quantitation Reagent (Invitrogen, Inc.; 1:500 dilution in Tris-HCl, pH 8.0, 1 mM EDTA), followed by incubation for 10 min at 25° C., followed by measurement of fluorescence intensity [excitation wavelength=485 nm and emission wavelength=535 nm; QuantaMaster QM1 spectrofluorometer (PTI, Inc.)]. IC50 is defined as the concentration of inhibitor resulting in 50% inhibition of RNA polymerase activity.
Fluorescence-detected RNA polymerase assays with S. aureus RNA polymerase were performed as in Example 2.1, using reaction mixtures containing (20 μl): 0-100 nM test salt, 75 nM S. aureus RNA polymerase core enzyme, 300 nM S. aureus σ^A, 20 nM 384 bp DNA fragment containing the bacteriophage T4 N25 promoter, 100 μM ATP, 100 μM GTP, 100 μM UTP, 100 μM CTP, 40 mM Tris-HCl, pH 8.0, 80 mM NaCl, 5 mM MgCl2, 2.5 mM DTT, and 12.7% glycerol. IC50 is defined as the concentration of inhibitor resulting in 50% inhibition of RNA polymerase activity.

[4] = molecular target: E. coli RNA polymerase σ70 holoenzyme (Escherichia coli (strain K12), UniProt P0A8T7+P0A8V2); assay: Fluorescence-detected assay of inhibition of Escherichia coli RNA polymerase; format: biochemical; conditions: T4 N25 promoter DNA, RiboGreen fluorescence, read-out: RNAP-inhibitory activity E. coli RNAP IC50
Method: as §1

| SMILES | ED50 [1] [mg/kg] | MIC [2] [µg/mL] | IC50 [3] [µM] | IC50 [4] [µM] |
| --- | --- | --- | --- | --- |
| O=C(NCCc1ccc(Oc2ccccc2)cc1)c1c(O)cc(O)cc1O [Compound 0MTK148, 2,4,6-trihydroxy-N-(4-phenoxyphenethyl)benzamide] | 2.5 | 19 (≈ 52 µM) | 3.9 | 0.8 |
| O=C(NCCc1ccc(C(F)(F)F)cc1C(F)(F)F)c1c(O)cc(O)cc1O [Compound 0MTK208, N-(2,4-bis(trifluoromethyl)phenethyl)-2,4,6-trihydroxybenzamide] | – | 11 (≈ 26.9 µM) | 5 | 7.2 |
| O=C(NCCc1ccc(Cl)cc1)c1c(O)c(Cl)c(O)c(Cl)c1O [Compound 0MTK221, 3,5-dichloro-N-(4-chlorophenethyl)-2,4,6-trihydroxybenzamide] | – | > 40 | 98 | 14 |
| O=C(NCCc1ccc(Cl)cc1)c1c(O)cc(O)c(Cl)c1O [Compound 0MTK222, 3-chloro-N-(4-chlorophenethyl)-2,4,6-trihydroxybenzamide] | – | > 40 | 9 | 6.8 |
| O=C(NCCc1ccc(C(F)(F)F)cc1)c1c(O)cc(O)c(Cl)c1O [Compound 0MTK223, 3-chloro-2,4,6-trihydroxy-N-(4-(trifluoromethyl)phenethyl)benzamide] | – | > 40 | 10 | 6.6 |
| O=C(NCCc1ccc(C(F)(F)F)cc1)c1c(O)c(Cl)c(O)c(Cl)c1O [Compound 0MTK224, 3,5-dichloro-2,4,6-trihydroxy-N-(4-(trifluoromethyl)phenethyl)benzamide] | – | > 40 | > 100 | 25 |
| O=C(NCCc1ccc(Oc2ccccc2)cc1)c1c(O)c(Cl)c(O)c(Cl)c1O [Compound 0MTK230, 3,5-dichloro-2,4,6-trihydroxy-N-(4-phenoxyphenethyl)benzamide] | – | > 40 | 35 | 7.7 |
| O=C(NCCc1ccc(Oc2ccc(F)cc2)cc1)c1c(O)c(Cl)c(O)c(Cl)c1O [Compound 0MTK231, 3,5-dichloro-N-(4-(4-fluorophenoxy)phenethyl)-2,4,6-trihydroxybenzamide] | – | 33 (≈ 73 µM) | 31 | 8.4 |
| O=C(NCCc1ccc(Oc2ccc(Cl)cc2)cc1)c1c(O)cc(O)c(Cl)c1O [Compound 0MTK232, 3-chloro-N-(4-(4-chlorophenoxy)phenethyl)-2,4,6-trihydroxybenzamide] | – | 20 (≈ 46.1 µM) | 8 | 0.72 |
| O=C(NCCc1ccc(Oc2ccc(Cl)cc2)cc1)c1c(O)c(Cl)c(O)c(Cl)c1O [Compound 0MTK233, 3,5-dichloro-N-(4-(4-chlorophenoxy)phenethyl)-2,4,6-trihydroxybenzamide] | – | 6.8 (≈ 14.5 µM) | 23 | 4.5 |
| O=C(NCCc1ccc(Oc2cc(Cl)cc(Cl)c2)cc1)c1c(O)cc(O)c(Cl)c1O [Compound 0MTK237, 3-chloro-N-(4-(3,5-dichlorophenoxy)phenethyl)-2,4,6-trihydroxybenzamide] | – | 15 (≈ 32 µM) | 3 | 0.31 |
| O=C(NCCc1ccc(Oc2cc(Cl)cc(Cl)c2)cc1)c1c(O)c(Cl)c(O)c(Cl)c1O [Compound 0MTK238, 3,5-dichloro-N-(4-(3,5-dichlorophenoxy)phenethyl)-2,4,6-trihydroxybenzamide] | – | 3.2 (≈ 6.36 µM) | 3 | 0.77 |
| O=C(NCCc1ccc(Oc2ccc(F)cc2)cc1)c1c(O)cc(O)c(Cl)c1O [Compound 0MTK240, 3-chloro-N-(4-(4-fluorophenoxy)phenethyl)-2,4,6-trihydroxybenzamide] | – | > 40 | 15 | 2.1 |
| O=C(NCCc1ccc(Oc2cccc(Cl)c2)cc1)c1c(O)cc(O)cc1O [Compound 0MTK256, N-(4-(3-chlorophenoxy)phenethyl)-2,4,6-trihydroxybenzamide] | – | 9.1 (≈ 22.8 µM) | 10 | 0.65 |
| Cc1ccc(Oc2ccc(CCNC(=O)c3c(O)cc(O)cc3O)cc2)cc1 [Compound 0MTK257, 2,4,6-trihydroxy-N-(4-(p-tolyloxy)phenethyl)benzamide] | – | 20 (≈ 52.7 µM) | 11 | 0.8 |
| CCC1=C(O)C(CC)(CC)C(=O)C(C(=O)NCCc2ccc(Oc3ccc(F)cc3)cc2)=C1O [Compound 3RKHTK161, 3,5,5-triethyl-N-(4-(4-fluorophenoxy)phenethyl)-2,4-dihydroxy-6-oxocyclohexa-1,3-dienecarboxamide] | – | 2.8 (≈ 5.99 µM) | 13 | 3.3 |
